Laboratory results from patent publication US20220211692A1, “Modulators of the Cystic Fibrosis Transmembrane Conductance Regulator Protein and Methods of Use” (AbbVie Global Enterprises Ltd., priority 2021, published 2022).
Read-outs that look alike come from different tables or passages of the source.

Tests used:
[1] = molecular target: T1, F508del/F508del CFTR (Homo sapiens, UniProt P13569, DEL508-508); experiment: Trans-Epithelial Current Clamp (TECC) assay using primary human bronchial epithelial cells; format: cell-based; settings: for Emax (% Dual): maximum percent activity relative to positive control (co-corrector 0.15 μM + potentiator 0.45 μM = 100%); for EC50: primary hBE cells F508del/F508del, test corrector with co-corrector and potentiator, 18-24 hours, equivalent CFTR current
T1 construct: cells isolated from CF patients with the homozygous mutation; endogenous in cells; host or cells: primary human bronchial epithelial (hBE) cells from CF patients homozygous for F508del
T1 sequence (P13569 with tags, fused parts or gaps DEL508-508): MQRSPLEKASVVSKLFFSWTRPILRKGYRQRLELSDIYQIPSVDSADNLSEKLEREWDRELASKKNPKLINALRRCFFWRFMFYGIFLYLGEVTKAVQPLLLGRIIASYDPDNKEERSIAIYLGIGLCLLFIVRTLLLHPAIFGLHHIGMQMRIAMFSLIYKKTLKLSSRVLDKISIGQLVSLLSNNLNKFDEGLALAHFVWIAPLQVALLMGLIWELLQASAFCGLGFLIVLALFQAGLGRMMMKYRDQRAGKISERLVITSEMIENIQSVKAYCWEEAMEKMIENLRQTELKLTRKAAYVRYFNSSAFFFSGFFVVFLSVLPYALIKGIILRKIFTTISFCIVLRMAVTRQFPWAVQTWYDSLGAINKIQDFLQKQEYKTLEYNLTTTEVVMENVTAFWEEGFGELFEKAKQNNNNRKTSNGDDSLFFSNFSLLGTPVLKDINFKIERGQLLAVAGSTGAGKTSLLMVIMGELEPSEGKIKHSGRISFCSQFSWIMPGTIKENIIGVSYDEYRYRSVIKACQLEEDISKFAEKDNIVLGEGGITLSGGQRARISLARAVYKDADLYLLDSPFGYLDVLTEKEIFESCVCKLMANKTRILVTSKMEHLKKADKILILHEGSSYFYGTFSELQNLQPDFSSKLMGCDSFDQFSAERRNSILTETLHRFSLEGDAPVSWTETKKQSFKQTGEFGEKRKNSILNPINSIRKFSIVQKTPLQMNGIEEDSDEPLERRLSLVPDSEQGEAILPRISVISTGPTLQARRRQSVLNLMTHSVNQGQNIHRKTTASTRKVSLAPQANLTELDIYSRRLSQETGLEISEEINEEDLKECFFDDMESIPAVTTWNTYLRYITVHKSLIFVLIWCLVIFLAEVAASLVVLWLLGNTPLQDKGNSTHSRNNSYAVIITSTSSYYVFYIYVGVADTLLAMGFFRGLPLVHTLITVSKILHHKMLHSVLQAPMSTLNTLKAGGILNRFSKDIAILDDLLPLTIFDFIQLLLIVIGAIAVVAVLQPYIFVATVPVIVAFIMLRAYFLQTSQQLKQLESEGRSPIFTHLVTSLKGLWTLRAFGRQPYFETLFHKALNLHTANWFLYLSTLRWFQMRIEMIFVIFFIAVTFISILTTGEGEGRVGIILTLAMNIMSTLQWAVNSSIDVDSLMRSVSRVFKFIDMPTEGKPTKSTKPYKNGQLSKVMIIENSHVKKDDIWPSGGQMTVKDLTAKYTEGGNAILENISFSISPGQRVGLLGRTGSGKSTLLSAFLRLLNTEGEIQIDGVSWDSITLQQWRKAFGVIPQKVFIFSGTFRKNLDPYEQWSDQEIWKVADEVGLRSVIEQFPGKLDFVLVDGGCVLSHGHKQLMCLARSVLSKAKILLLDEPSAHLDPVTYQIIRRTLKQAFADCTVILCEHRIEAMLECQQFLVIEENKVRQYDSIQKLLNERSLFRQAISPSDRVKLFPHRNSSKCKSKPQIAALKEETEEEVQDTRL
From the text: A cell-based assay was developed using the primary human bronchial epithelial cells (hBE cells) with F508del/F508del CFTR and other mutations.
Primary human bronchial epithelial (hBE) cells from CFTR patients with homozygous F508del/F508del mutation were expanded from 1×10^6 to 250×10^6 cells (Neuberger, T et al., 2011, Methods Mol Biol 741:39-54). For this purpose, cells isolated from CF patients with the homozygous mutation, procured from the CF center tissue procurement and cell culture core at the Marsico Lung Institute at UNC (Randell), the Cystic Fibrosis translational research center at McGill University (University), and Rosalind Franklin University Medical School (RFUMS) were seeded onto 24 well Corning (Cat #3378) filter plates that were coated with 3T3 conditioned media and grown at an air-liquid interface for 35 days using an Ultroser® G supplemented differentiation media. All the primary human bronchial epithelial cells were collected in accordance with institutional review board approval protocols. Apical surface mucus was removed 72 hours before the experiment by incubating the apical surface of the cells for 30 minutes with 3 mM dithiothreitol (DTT) prepared in Dulbecco's phosphate buffered saline (DPBS) with Ca^2+ and Mg^2+. This was followed with aspiration of the mucus from the apical surface along with DPBS. The apical surface was re-washed with phosphate buffered saline (PBS) incubated for 30 minutes followed with aspiration. These hBE cells were then incubated with the desired concentrations of the test C2 corrector compounds along with co-corrector, 4-[(2R,4R)-4-({[1-(2,2-difluoro-1,3-benzodioxol-5-yl)cyclopropyl]carbonyl}amino)-7-(difluoromethoxy)-3,4-dihydro-2H-chromen-2-yl]benzoic acid and potentiator, (5-{3-amino-5-[4-(trifluoromethoxy)benzene-1-sulfonyl]pyridin-2-yl}-1,3,4-oxadiazol-2-yl)methanol, for 18-24 hours at 37° C., 5% CO2. The desired concentrations of the correctors and potentiator compounds were prepared from the 10 mM stocks in differentiation media and were always applied on the basolateral side of the epithelial cells. We also used an assay format where a fixed concentration of potentiator was added chronically along with the corrector compounds. This chronic treatment with the potentiator helped eliminate any interaction that might happen with CFTR modulators (correctors and potentiators) and thereby determined the true efficacy of the modulator combinations reflective of clinical relevance.
The assay uses a Transepithelial Current Clamp (TECC) (Vu, C B et al., 2017; J Med Chem 60:458-473) instrument that can measure the functionality of the mutated channel by measuring the equivalent CFTR current (IEQ) generated by the polarized primary epithelial cells. We used a TECC-24 with a 24-channel electrode manifold allowing for the simultaneous measurement of the transepithelial voltage, VT, and transepithelial resistance, RT, under current clamp conditions, from 24 filters using a 24 well Costar filter plate. The design of the filters in the 24 well filter plates was exactly the same as the design of an individual Transwell filter used in the classical Ussing Chamber with a surface area of 0.33 cm^2. Each measured VT values were corrected for the electrode offset potential measured using buffer alone in a separate plate, and each measured RT values were then corrected for the combined solution series and empty filter resistances. The corrected VT and RT values were then used to calculate the equivalent current, IEQ using Ohm's law (IEQ=VT/RT). The area under the curve (AUC) for the time period between the forskolin peak IEQ response and at the time of bumetanide addition was also calculated using a one-third trapezoid method, in addition to calculating the IEQ. The assay was run in a 24-well format and all 24-wells were measured at the same time point giving a higher throughput for this assay. […]

[2] = molecular target: T2, F508delCFTR (Homo sapiens, UniProt P13569, DEL508-508); experiment: Cell Surface Expression-Horse Radish Peroxidase (CSE-HRP) assay in CFBE41o-F508delCFTR-HRP cells; format: cell-based; settings: for EC50: CFBE41o-F508delCFTR-HRP cells, 18-24 hours at 33° C.; for Emax / Maximum % activity (with co-corrector): normalized to on-plate positive control; for Emax: read-out: Maximum % activity (without co-corrector)
T2 construct: expressed in transfected cells; host or cells: CFBE41o- human lung derived epithelial cell line, doxycycline-induced expression
T2 sequence (P13569 with tags, fused parts or gaps DEL508-508): as above
Description: A cellular assay for measuring the F508delCFTR cell surface expression after correction with test compounds either without or with a co-corrector (2 μM of 3-[(2R,4R)-4-({[1-(2,2-difluoro-1,3-benzodioxol-5-yl)cyclopropyl]carbonyl}amino)-7-methoxy-3,4-dihydro-2H-chromen-2-yl]benzoic acid), was developed in human lung derived epithelial cell line (CFBE41o-) (Veit G et al, (2012) Mol Biol Cell. 23(21): 4188-4202). The development was achieved by expressing the F508delCFTR mutation along with a horseradish peroxidase (HRP) in the fourth exofacial loop, and then measuring the HRP activity using luminescence readout from these cells, CFBE41o-F508delCFTR-HIRP, that were incubated overnight with the test corrector compounds, either without or with the co-corrector. For this primary assay, the CFBE41o-F508delCFTR-HRP cells were plated in 384-well plates (Greiner Bio-one; Cat 781080) at 4,000 cells/well along with 0.5 μg/mL doxycycline to induce the F508delCFTR-HRP expression and further incubated at 37° C., […] for 68-72 hours. The test compounds were then added either without or with a co-corrector at the required concentrations and further incubated for 18-24 hours at 33° C. The highest concentration tested was 20 μM or 30 μM (GI-1 to GIII-36) with an 8-point concentration response curve using a 3-fold dilution in both the test compound without or with the co-corrector. Three replicate plates were run to determine one EC50. All plates contained negative controls (dimethyl sulfoxide, DMSO) and positive control (2 μM or 3 μM (GI-1 to GIII-36) of 3-[(2R,4R)-4-({[1-(2,2-difluoro-1,3-benzodioxol-5-yl)cyclopropyl]carbonyl}amino)-7-methoxy-3,4-dihydro-2H-chromen-2-yl]benzoic acid) as well as on-plate concentration response of the positive control. Post incubation, the plates were washed 5× times with Dulbecco's phosphate buffered saline (DPBS), followed by the addition of the HRP substrate, luminol (50 μL), and measuring the HRP activity using luminescence readout on EnVision® Multilabel Plate Reader (Perkin Elmer; product number 2104-0010). The raw counts from the experiment were analyzed using Accelrys® Assay Explorer v3.3.
Z′ greater than 0.5 was used as passing quality control criteria for the plates. The Z′ is defined as:
1−[3*SDPositive Control+3*SDNegative Control/Absolute(MeanPositive Control−MeanNegative Control)]
The % activity measured at each of the 8 test concentrations of the test compound added either without or with a co-corrector (2 μM or 3 μM (GI-1 to GIII-36) of 3-[(2R,4R)-4-({[1-(2,2-difluoro-1,3-benzodioxol-5-yl)cyclopropyl]carbonyl}amino)-7-methoxy-3,4-dihydro-2H-chromen-2-yl]benzoic acid) was normalized to the on-plate positive control using the following formulae:
% activity (Test compound without co-corrector)=[(test compound without co-corrector response−DMSO response)/(positive control response−DMSO response)]*100
% activity (Test compound with co-corrector)=[(test compound with co-corrector response−DMSO response)/(positive control response−DMSO response)]*100
The maximum % activity achieved for the test compound either without or with a co-corrector at any tested concentration is presented in Table 3 along with the respective EC50's calculated using the following general sigmoidal curve with variable Hill slope equation (described as Model 42 in the Accelrys® Assay Explorer v3.3 software):
General sigmoidal curve with concentration, response, top, bottom, EC50 and Hill slope. This model describes a sigmoidal curve with an adjustable baseline, a. The equation can be used to fit curves where response is either increasing or decreasing with respect to the independent variable, “x”.

[3] = with co-corrector 2 μM, read-out: EC50 (with co-corrector)
[4] = without co-corrector, read-out: EC50 (without co-corrector)

Emax (% Dual) [1] [% Dual]	EC50 [1] [nM]	EC50 [2, 3] [nM]	EC50 [2, 4] [nM]	Emax ([2]; without co-corrector) [%]	Maximum % activity (with co-corrector) ([2]; with co-corrector 2 μM) [%]	SMILES
244	14.1	330	980	679	–	COc1ccccc1[C@H]1CO[C@@](C(=O)NS(=O)(=O)c2cccc3nc(C)ccc23)(c2cc(C)ccc2OC)C1 [Example 38, (2R,4S)-2-(2-methoxy-5-methylphenyl)-4-(2-methoxyphenyl)-N-(2-methylquinoline-5-sulfonyl)oxolane-2-carboxamide]
230	164	1210	1860	213	587	COc1ccc(C)cc1[C@@]1(C(=O)NS(=O)(=O)c2cccc3nc(C)ccc23)C[C@@H](OC)CO1 [Example 29, (2R,4R)-4-methoxy-2-(2-methoxy-5-methylphenyl)-N-(2-methylquinoline-5-sulfonyl)oxolane-2-carboxamide]
130	171	3270	3970	282	828	CCc1ccc(Oc2cccnc2OC(F)F)c([C@]2(C(=O)NS(=O)(=O)c3cccc4nc(C)ccc34)CCCO2)c1 [Example 26, (2S)-2-(2-{[2-(difluoromethoxy)pyridin-3-yl]oxy}-5-ethylphenyl)-N-(2-methylquinoline-5-sulfonyl)oxolane-2-carboxamide]
318	82.5	780	1540	602	–	CCOc1ccc(C)cc1[C@@]1(C(=O)NS(=O)(=O)c2cccc3nc(C)ccc23)CCCO1 (single isomer, unassigned) [Example 2]
201	35.1	680	1230	366	862	COc1ccc(C)cc1[C@@]1(C(=O)NS(=O)(=O)c2cccc3nc(C)ccc23)C[C@H](C)CO1 [Example 20, (2R,4S)-2-(2-methoxy-5-methylphenyl)-4-methyl-N-(2-methylquinoline-5-sulfonyl)oxolane-2-carboxamide]
129	> 300	2700	3930	303	711	CCOc1ccc(CC)cc1[C@]1(C(=O)NS(=O)(=O)c2cccc3nc(C)ccc23)CCCO1 [Example 10, (2S)-2-(2-ethoxy-5-ethylphenyl)-N-(2-methylquinoline-5-sulfonyl)oxolane-2-carboxamide]
161	244	2540	3490	334	871	CCc1ccc(OCC(C)OC)c([C@@]2(C(=O)NS(=O)(=O)c3cccc4nc(C)ccc34)CCCO2)c1 (stereo in doubt) [Example 14, (2R)-2-{5-ethyl-2-[(2S)-2-methoxypropoxy]phenyl}-N-(2-methylquinoline-5-sulfonyl)oxolane-2-carboxamide]
200	589	1140	1950	235	673	CCc1ccc(Oc2ccccc2)c([C@]2(C(=O)NS(=O)(=O)c3cccc4nc(C)ccc34)CCCO2)c1 [Example 22, (2S)-2-(5-ethyl-2-phenoxyphenyl)-N-(2-methylquinoline-5-sulfonyl)oxolane-2-carboxamide]
253	33	720	880	339	850	COc1ccc(C)cc1[C@@]1(C(=O)NS(=O)(=O)c2cccc3nc(C)ccc23)C[C@@H](C)CO1 [Example 19, (2R,4R)-2-(2-methoxy-5-methylphenyl)-4-methyl-N-(2-methylquinoline-5-sulfonyl)oxolane-2-carboxamide]
315	68	680	700	735	–	COc1ccc(C)cc1[C@@]1(C(=O)NS(=O)(=O)c2cccc3nc(C)ccc23)CC[C@H](c2ccccc2)O1 [Example 12, (2R,5R)-2-(2-methoxy-5-methylphenyl)-N-(2-methylquinoline-5-sulfonyl)-5-phenyloxolane-2-carboxamide]
197	331	–	2630	301	–	COc1ccc(C)cc1[C@@]1(C(=O)NS(=O)(=O)c2cccc3nc(C)ccc23)C[C@](C)(OC)CO1 [Example 30, (2R,4S)-4-methoxy-2-(2-methoxy-5-methylphenyl)-4-methyl-N-(2-methylquinoline-5-sulfonyl)oxolane-2-carboxamide]
